Reference: US7050620B2, “Method of assaying shape and structural features in cells” (priority 2001, dated 2006)
Entries after “also recorded” stand apart in the source; their conditions may differ.

What was measured:
IAR20 PC1 cells [1] = test: Factor-based classification of cell shape phenotype from interference contours (predicted time in culture); parameters: species or system rat; conditions: for factors used in classification whose values changed significantly: 2 h exposure; for mean predicted time (signature-type, factor-based classification): FIG. 1 experiment, 2 μM colchicine, 18 μM paclitaxel, 10 μM valinomycin, 0.5 μM gramicidin D, 200 μM quinidine, control 283 days; for mean predicted time (signature-type, factor-based classification) / shift of signature-type (mean predicted time) versus control, in words: 2 hr exposure; for shift of signature-type (mean predicted time) versus control, in words: taxanes 6–18 μM, baccatin III 9 μM, colchicine 2 μM; for factor #12 value (slope at which cell rises from substratum, rounding-up): versus control / direction relative to signature-type; for factor #4 value (filopodia / sharp projections at cell edge) / factor #7 value (knob-like structures at the cell edge) / factor #8 value (sharp features in the second contour): versus control; for factor #8 value (sharp features in the second contour): monensin 24 μM
Procedure: (§1) Cell lines and interference preparations. Equations were developed to define changes in the signature-type for two epithelial cell lines that underwent transformation over a prolonged time of in vivo culture. […] IAR20 PC1 was a clonal derivative of a line called IAR20, which was cultured from liver cells of a BD-VI rat. […] Liver cells were grown in William's E medium supplemented with 10% fetal bovine serum, whereas the tracheal cells were grown in Waymouth's medium containing fetal bovine serum plus 0.1 μg/ml insulin and 0.1 μg /ml hydrocortisone. The cells were maintained and subcultured as described elsewhere (1,3). For experiments with insulin supplementation, insulin concentrations were raised to 1 and 10 μg/ml and maintained for two passages before the cells were used.
(§2) Information about shape features was derived from interference images. These were generated by culturing cells on anodized tantalum substrates, and then imaging them in reflected light. Cells were plated on substrates in replicate dishes, left overnight, and then exposed to experimental agents or to the solvent vehicle alone. After incubation with the agents for 2–5 h, samples were recovered, fixed in buffered 3% glutaraldehyde (pH 7.3), and air-dried. Randomly selected cells were imaged in a Zeiss Universal microscope, and the outlines of their three lowermost interference contours were digitized. […] Each experimental treatment was represented by a total of 50 cells.
(§3) Classification procedures. The classification methods employed a subset of the contour shape variables. Each 50-cell sample was submitted to multiple linear regression analysis for classification alongside a group of cells representing normal and transformed reference samples. The latter were obtained from the lines that underwent transformation as described above. Because the signature-type value was assigned relative to these samples, the solutions were in units of predicted time in culture. After obtaining such a value for each cell in an experiment, the differences in mean predicted times for treated and control cells were calculated. The sum of the squared standard deviations, divided by the number of observations, n, was used to compute the confidence limits of the mean: (s1)^2/n+(s2)^2/n Where s was the standard deviation for each sample. Dividing the difference between the means by the square root of the above expression yields a value that can be related to the degree of confidence, 1-α. […] This value was equivalent to a probability that the two samples differed of P≦0.02.
(§4) Again, classification of samples from experiments employed multiple linear regression methods, based on factors scores rather than on contour shape variables. Factors were generated by combining into a single database, the contour shape variables from highly malignant epithelial cells and precancerous lines that change progressively, eventually become neoplastic. […] Principal components were extracted and transformed by a pattern of rotation to produce latent factors, which described variances that had thereby been rendered orthogonal (8). Factor scores for each cell represented in the database to be estimated. These factor scores from known IAR20 PC1 or 1000 W cells are used as a reference to classify data from short-term experiments on the respective samples. The factors used in classification were selected by the SAS REG procedure (8). […] Predicted time-in-culture values were obtained by submitting the experimental cells to analysis, as described above for simple variables. The statistical significance of differences among sample means within each experiment was determined by the Duncan multiple range test.

IAR20 PC1 cells [2] = test: Indirect immunofluorescence localization of beta-tubulin (microtubule organization); type: cell-based, rat; conditions: for MT organization / arrangement, in words: exposure 2–5 h; for cells with MT bundles on both sides of the nucleus: taxane alone or IC with 2 μM colchicine
Procedure: Immunofluorescene localization of β-tubulin. IAR20 PC1 cells were subcultured onto sterile glass cover slips as described above. Replicate samples were exposed to test agents for 2–5 h alongside controls, and then fixed and left in methanol at −70° C. until used for the immunofluorescence procedure. To visualize arrays of MTs, cells were exposed to a mouse monoclonal anti-β tubulin antibody (Nycomed Amersham, Little Chalfont, Buckinghamshire, UK), made up at a 1:300 dilution. We used a 1:100 dilution of P3×63 monoclonal antibody from P3 myeloma (generous gift from J. Lessard) as a non-specific control. The secondary antibody, […] goat anti-mouse immunoglobulin G (US Biochemical Corp., Cleveland), was used at a dilution of 1:2000. Cover slips were processed and then mounted on a slide in a solution of 1,4-diazobicyclo[2.2.2]octane (Sigma) made up to 25 mg/ml in glycerol. The samples were photographed on a Zeiss Axiophot microscope equipped with a 63x Planapo lens. Images were recorded on Kodak Tri-X or T-Max film. All of the drugs, including paclitaxel, cephalomannine, colchicine, and baccatin III, were studied to see if they affected the arrangement of MTs. […] MT arrangement was unaltered after treatment with the above-mentioned ionophores and transport inhibitors.

1000 W cells = test: Factor-based classification of cell shape phenotype from interference contours (predicted time in culture); parameters: species or system rat; conditions: for number of the eight contour shape variables highly correlated with factor #4 that changed significantly: 1000 W cells, FIG. 7—Table 3; for change of signature-type versus control, in words: paclitaxel 2-h or 5 h exposure, insulin 0.1–10 μg/ml; for predicted time (factor-based classification): time zero 612 days
Procedure: as §1, with “Equations were developed to define changes in the signature-type for two epithelial cell lines that underwent transformation over a prolonged time of in vivo culture.” left out
as §2, with “After incubation with the agents for 2–5 h, samples were recovered, fixed in buffered 3% glutaraldehyde (pH 7.3), and air-dried.” left out
as §3, §4

IAR20 PC1 cells [3] = test: Uptake of fluid-phase marker horseradish peroxidase; type: cell-based, rat; conditions: monensin treatment

With CCN(CC)CCCC(C)Nc1ccnc2cc(Cl)ccc12 (stereo not shown) [chloroquine] the “factors used in classification whose values changed significantly” value (IAR20 PC1 cells [1]) was “did not significantly change any of the factors” and the “mean predicted time (signature-type, factor-based classification)” value (IAR20 PC1 cells [1]) was 315 days.
In the case of CC(=O)O[C@H]1C(=O)[C@]2(C)CC[C@H]3OC[C@@]3(OC(C)=O)[C@H]2[C@H](OC(=O)c2ccccc2)[C@]2(O)C[C@H](OC(=O)[C@H](O)[C@@H](NC(=O)c3ccccc3)c3ccccc3)C(C)=C1C2(C)C [7-deoxytaxol], the “shift of signature-type (mean predicted time) versus control, in words” value (IAR20 PC1 cells [1]) is reported as “failed to shift”.
In the case of CC(=O)O[C@H]1C(=O)[C@@]2(C)[C@H]([C@H](OC(=O)c3ccccc3)[C@]3(O)C[C@H](OC(=O)[C@H](O)[C@@H](NC(=O)c4ccccc4)c4ccccc4)C(C)=C1C3(C)C)[C@]1(OC(C)=O)CO[C@@H]1C[C@@H]2O [paclitaxel], the “MT organization / arrangement, in words” value (IAR20 PC1 cells [2]) is reported as “large bundles of MTs”, the “cells with MT bundles on both sides of the nucleus” value (IAR20 PC1 cells [2]) is reported as 56% and the “factors used in classification whose values changed significantly” value (IAR20 PC1 cells [1]) is reported as “changes in factors #1, #7, and #12”. The “shift of signature-type (mean predicted time) versus control, in words” value (IAR20 PC1 cells [1]) was “failed to promote the signature-type”, the “mean predicted time (signature-type, factor-based classification)” value (IAR20 PC1 cells [1]) was 304 days and the “factors whose values changed” value (IAR20 PC1 cells [1]; paclitaxel at a high concentration over a 4-h period) was “changes in #1, #7, #8, and #13”. For the same molecule, the “factor #12 value (slope at which cell rises from substratum, rounding-up)” value (IAR20 PC1 cells [1]) was “counteracted”, the “number of the eight contour shape variables highly correlated with factor #4 that changed significantly” value (1000 W cells) was “six of their values differed significantly” and the “number of the eight contour shape variables highly correlated with factor #4 that changed significantly” value (1000 W cells; listed as Paclitaxel) was “six out of the eight”. The “change of signature-type versus control, in words” value (1000 W cells) was “failed to elicit any change”.
With COc1cc2c(c(OC)c1OC)-c1ccc(OC)c(=O)cc1[C@@H](NC(C)=O)CC2 [colchicine] the “MT organization / arrangement, in words” value (IAR20 PC1 cells [2]) was “complete depolymerization of MTs”, the “mean predicted time (signature-type, factor-based classification)” value (IAR20 PC1 cells [1]) was 338 days and the “factor #4 value (filopodia / sharp projections at cell edge)” value (IAR20 PC1 cells [1]) was “decreased”. The “factor #7 value (knob-like structures at the cell edge)” value (IAR20 PC1 cells [1]) was “increased”, the “factor #12 value (slope at which cell rises from substratum, rounding-up)” value (IAR20 PC1 cells [1]) was “mimicked; also recorded: increased” and the mean predicted time (1000 W cells; 2 μM colchicine for 2 hrs, cells grown in 0.1 μg/ml insulin, untreated 655 days) was 737 days. For the same molecule, the mean predicted time (1000 W cells; 2 μM colchicine for 2 hrs, cells grown in 1 μg/ml insulin, untreated 638 days) was 687 days, the mean predicted time (1000 W cells; 2 μM colchicine for 2 hrs, cells grown in 10 μg/ml insulin, untreated 637 days) was 673 days and the “factor #1 value (massive extensions or invaginations in the two uppermost contours)” value (1000 W cells; colchicine exposure) was “increased”. The “average solution of predicted time” value (1000 W cells; second experiment, colchicine-treated sample, control 636 days) was 689 days.
With gramicidin D the “mean predicted time (signature-type, factor-based classification)” value (IAR20 PC1 cells [1]) was 387 days, the “factor #4 value (filopodia / sharp projections at cell edge)” value (IAR20 PC1 cells [1]) was “change in factor #4” and the “factor #7 value (knob-like structures at the cell edge)” value (IAR20 PC1 cells [1]) was “increase”.
With C/C=C(\C)C(=O)N[C@@H](c1ccccc1)[C@@H](O)C(=O)O[C@H]1C[C@@]2(O)[C@@H](OC(=O)c3ccccc3)[C@@H]3[C@]4(OC(C)=O)CO[C@@H]4C[C@H](O)[C@@]3(C)C(=O)[C@H](OC(C)=O)C(=C1C)C2(C)C [cephalomannine] the “MT organization / arrangement, in words” value (IAR20 PC1 cells [2]) was “caused MTs to aggregate in the form of arc-shaped bundles”, the “cells with MT bundles on both sides of the nucleus” value (IAR20 PC1 cells [2]) was 71% and the “shift of signature-type (mean predicted time) versus control, in words” value (IAR20 PC1 cells [1]) was “failed to shift”.
CC(=O)O[C@H]1C(=O)[C@@]2(C)[C@H]([C@H](OC(=O)c3ccccc3)[C@]3(O)C[C@H](O)C(C)=C1C3(C)C)[C@]1(OC(C)=O)CO[C@@H]1C[C@@H]2O [baccatin III, Baccatin III] was tested, and the “MT organization / arrangement, in words” value (IAR20 PC1 cells [2]) was “little noticeable effect” and the “shift of signature-type (mean predicted time) versus control, in words” value (IAR20 PC1 cells [1]) was “failed to shift”.
In the case of CCCCCCCCCCCCCC(=O)O[C@@H]1[C@@H](C)[C@@]2(O)[C@@H](C=C(CO)C[C@]3(O)C(=O)C(C)=C[C@@H]23)[C@@H]2C(C)(C)[C@]12OC(C)=O [PMA, phorbol 12-myristate 13-acetate], the “predicted time (factor-based classification)” value (1000 W cells; 30 min after PMA exposure) is reported as 648 days, the “predicted time (factor-based classification)” value (1000 W cells; 2 h after PMA exposure) is reported as 663 days and the “predicted time (factor-based classification)” value (1000 W cells; 5 h after PMA exposure) is reported as 668 days. For the same molecule, the “predicted time (factor-based classification)” value (1000 W cells; 10 h after PMA exposure) was 604 days, the “factor #1 value” (1000 W cells; PMA time course) was “significantly elevated for a brief period after exposure” and the “factor #2 value” (1000 W cells; PMA, 10-h time point) was “significantly reduced below control”. For the same molecule, the “factor #7 value (knob-shaped projections on the cell edge)” value (1000 W cells; PMA, one experiment) was “adopted values like those of transformed cells”, the “factor #16 value (size variability in projections at the cell edge)” value (1000 W cells; PMA, one experiment) was “adopted values like those of transformed cells” and the “factor #4 value” (1000 W cells; PMA, times between 0.5 and 5 h) was “indistinguishable from those of control samples”. For the same molecule, the “factor #12 value” (1000 W cells; PMA, times between 0.5 and 5 h) was “indistinguishable from those of control samples”.
For CC(C)[C@@H]1NC(=O)[C@H](C)OC(=O)[C@@H](C(C)C)NC(=O)[C@@H](C(C)C)OC(=O)[C@H](C(C)C)NC(=O)[C@H](C)OC(=O)[C@@H](C(C)C)NC(=O)[C@@H](C(C)C)OC(=O)[C@H](C(C)C)NC(=O)[C@H](C)OC(=O)[C@@H](C(C)C)NC(=O)[C@@H](C(C)C)OC1=O [valinomycin], the “mean predicted time (signature-type, factor-based classification)” value (IAR20 PC1 cells [1]) was 336 days, the “factor #4 value (filopodia / sharp projections at cell edge)” value (IAR20 PC1 cells [1]) was “change in factor #4” and the “factor #8 value (sharp features in the second contour)” value (IAR20 PC1 cells [1]) was “affected”.
CC[C@@]1([C@@H]2O[C@@H]([C@H]3O[C@@](O)(CO)[C@H](C)C[C@@H]3C)C[C@@H]2C)CC[C@H]([C@]2(C)CC[C@]3(C[C@H](O)[C@@H](C)[C@@H]([C@@H](C)[C@@H](OC)[C@H](C)C(=O)O)O3)O2)O1 [monensin] was tested, and the “time after initial exposure by which horseradish peroxidase uptake was inhibited” value (IAR20 PC1 cells [3]) was no more than 30 min, the “average predicted time (factor-based classification)” value (IAR20 PC1 cells [1]; 24 μM monensin alone or together with 50 μM ouabain, control 318 days) was 344 days and the “factor #4 value (filopodia / sharp projections at cell edge)” value (IAR20 PC1 cells [1]) was “change in factor #4”. For the same molecule, the “factor #8 value (sharp features in the second contour)” value (IAR20 PC1 cells [1]) was “affected”.
With insulin the mean predicted time (1000 W cells; grown in 0.1 μg/ml insulin, no colchicine) was 655 days, the mean predicted time (1000 W cells; grown in 1 μg/ml insulin, no colchicine) was 638 days and the mean predicted time (1000 W cells; grown in 10 μg/ml insulin, no colchicine) was 637 days. The “change of signature-type versus control, in words” value (1000 W cells) was “no significant differences”.
